Measurements taken from DBAASP.
In brackets after ≈: the same amount, converted by molar mass. One block for each compound: values may come before it.

Legend:
Assay in all cases: ≥ marks a high value that may be exact or a test limit, other limits are often not marked, values filed in µg/mL are converted to µM
[1] = test system: Candida glabrata 090902
[2] = test system: Enterococcus faecalis 981
[3] = test system: Nocardia asteroides
[4] = test system: Pseudomonas aeruginosa CGMCC 1.50
[5] = test system: Staphylococcus aureus ATCC 25923
[6] = test system: Bacillus subtilis
[7] = test system: Candida albicans
[8] = test system: Cryptococcus neoformans
[9] = test system: Escherichia coli
[10] = test system: Pseudomonas putida
[11] = test system: Saccharomyces cerevisiae
[12] = test system: Salmonella typhimurium
[13] = test system: Serratia sp.
[14] = test system: Staphylococcus aureus
[15] = test system: Streptococcus mutans
[16] = test system: Escherichia coli ATCC 25922
[17] = test system: Micrococcus luteus
[18] = test system: Pseudomonas aeruginosa ATCC 15692
[19] = test system: Candida albicans ATCC 2002
[20] = test system: Candida albicans ATCC 90028
[21] = test system: Candida parapsilosis ATCC 22019
[22] = test system: Enterobacter cloacae ATCC 13047
[23] = test system: Enterococcus faecalis ATCC 29212
[24] = test system: Klebsiella pneumoniae ATCC 700603
[25] = test system: Klebsiella pneumoniae
[26] = test system: Pseudomonas aeruginosa ATCC 27853
[27] = test system: Pseudomonas aeruginosa CMCCB 1010
[28] = test system: Shigella dysenteriae
[29] = test system: Staphylococcus aureus 10
[30] = test system: Staphylococcus aureus 37
[31] = test system: Escherichia coli IH3080
[32] = test system: Escherichia coli SC9251
[33] = test system: Escherichia coli SC9252
[34] = test system: Escherichia coli SC9253
[35] = test system: Escherichia coli SM101
[36] = test system: Micrococcus luteus ML36

MIC [1]: ≥ 400 µM
MIC [2]: ≥ 200 µM
MIC [3]: ≥ 100 µM
MIC [4]: ≥ 400 µM
MIC [5]: 100 µM (≈ 133 µg/mL)
SMILES: CC[C@H](C)[C@H](NC(=O)[C@H](CC(C)C)NC(=O)CNC(=O)[C@@H](NC(=O)[C@@H](NC(=O)[C@@H](N)Cc1ccccc1)[C@@H](C)CC)[C@@H](C)O)C(=O)NCC(=O)NCC(=O)N[C@@H](CC(C)C)C(=O)N[C@@H](CCSC)C(=O)N[C@@H](CCCCN)C(=O)N[C@@H](C)C(=O)N[C@@H](CC(C)C)C(N)=O [FITGLIGGLMKAL]

MIC [16]: 2.83 µM (≈ 7.27 µg/mL)
MIC [17]: 0.5 µM (≈ 1.29 µg/mL)
MIC [18]: 16 µM (≈ 41.1 µg/mL)
MIC [11]: 8 µM (≈ 20.6 µg/mL)
MIC [5]: 11.3 µM (≈ 29.1 µg/mL)
SMILES: CC[C@H](C)[C@H](NC(=O)[C@H](C)NC(=O)[C@H](CC(=O)O)NC(=O)[C@H](CC(C)C)NC(=O)CNC(=O)CNC(=O)[C@H](CCCCN)NC(=O)[C@H](C)NC(=O)[C@H](Cc1ccccc1)NC(=O)[C@H](CCCCN)NC(=O)[C@H](CCCCN)NC(=O)[C@H](CC(C)C)NC(=O)CNC(=O)CNC(=O)[C@H](CC(C)C)NC(=O)[C@@H](NC(=O)[C@@H](NC(=O)[C@H](CO)NC(=O)[C@H](Cc1c[nH]c2ccccc12)NC(=O)[C@@H](NC(=O)CN)C(C)C)[C@@H](C)O)[C@@H](C)CC)C(=O)N[C@H](C(=O)N[C@@H](CC(N)=O)C(=O)N1CCC[C@H]1C(=O)N[C@@H](CCCCN)C(=O)O)C(C)C [GVWSTILGGLKKFAKGGLDAIVNPK]

The remaining lines, values behind:

SMILES: CC(C)C[C@H](NC(=O)[C@H](CCCN=C(N)N)NC(=O)[C@H](C)NC(=O)[C@H](CCCN=C(N)N)NC(=O)[C@H](CC(C)C)NC(=O)[C@H](CO)NC(=O)[C@H](CCC(=O)O)NC(=O)CNC(=O)[C@H](CCCCN)NC(=O)[C@H](CC(C)C)NC(=O)[C@H](CCCN=C(N)N)NC(=O)[C@H](CO)NC(=O)[C@@H](NC(=O)[C@H](CCCCN)NC(=O)[C@@H](NC(=O)[C@@H](NC(=O)CN)C(C)C)C(C)C)C(C)C)C(=O)O [GVVKVSRLKGESLRARL]
MIC [6]: 3.21 µM (≈ 6 µg/mL)
MIC [7]: 5.35 µM (≈ 10 µg/mL)
MIC [8]: 3.21 µM (≈ 6 µg/mL)
MIC [9]: 5.35 µM (≈ 10 µg/mL)
MIC [10]: 5.35 µM (≈ 10 µg/mL)
MIC [11]: 3.21 µM (≈ 6 µg/mL)
MIC [12]: 5.35 µM (≈ 10 µg/mL)
MIC [13]: 10.7 µM (≈ 20 µg/mL)
MIC [14]: 10.7 µM (≈ 20 µg/mL)
MIC [15]: 3.21 µM (≈ 6 µg/mL)

SMILES: CC[C@H](C)[C@H](N)C(=O)N[C@@H](CC(N)=O)C(=O)N[C@@H](CC(C)C)C(=O)N[C@@H](CCCCN)C(=O)N[C@@H](C)C(=O)N[C@H](C(=O)N[C@H](C(=O)N[C@@H](C)C(=O)N[C@@H](CC(C)C)C(=O)N[C@@H](C)C(=O)N[C@@H](CCCCN)C(=O)N[C@@H](CCCCN)C(=O)N[C@@H](CC(C)C)C(=O)N[C@@H](CC(C)C)C(=O)O)[C@@H](C)O)[C@@H](C)CC [INLKAITALAKKLL]
MIC [19]: 3.31 µM (≈ 5 µg/mL)
MIC [20]: 6.62 µM (≈ 10 µg/mL)
MIC [21]: 1.66 µM (≈ 2.5 µg/mL)
MIC [22]: 3.31 µM (≈ 5 µg/mL)
MIC [23]: 3.31 µM (≈ 5 µg/mL)
MIC [24]: 26.5 µM (≈ 40 µg/mL)
MIC [25]: 13.2 µM (≈ 20 µg/mL)
MIC [26]: 53 µM (≈ 80 µg/mL)
MIC [27]: 6.62 µM (≈ 10 µg/mL)
MIC [28]: 6.62 µM (≈ 10 µg/mL)
MIC [29]: 1.66 µM (≈ 2.5 µg/mL)
MIC [30]: 3.31 µM (≈ 5 µg/mL)
MIC [5]: 6.62 µM (≈ 10 µg/mL)

SMILES: NCCCC[C@H](NC(=O)[C@H](Cc1ccccc1)NC(=O)[C@H](Cc1ccccc1)NC(=O)[C@H](CCCCN)NC(=O)[C@H](Cc1ccccc1)NC(=O)[C@H](Cc1ccccc1)NC(=O)[C@@H](N)CCCCN)C(=O)N[C@@H](Cc1ccccc1)C(=O)N[C@@H](Cc1ccccc1)C(=O)O [KFFKFFKFF]
MIC [31]: ≥ 77.8 µM
MIC [32]: 23.3 µM (≈ 30 µg/mL)
MIC [33]: 23.3 µM (≈ 30 µg/mL)
MIC [34]: 23.3 µM (≈ 30 µg/mL)
MIC [35]: 23.3 µM (≈ 30 µg/mL)
MIC [36]: 7.78 µM (≈ 10 µg/mL)
